The text below walks through data of patent US20020123514A1, “Treatment of diabetes with thiazolidinedione and alpha-glucosidase inhibitor” (SmithKline Beecham plc, priority 1997, published 2002).

Each structure is given as a SMILES string.

As usually defined, the AUC(0-inf) is total exposure, with the tail of the curve extrapolated. As usually defined, the Cmax is the highest concentration seen after dosing. What is called Tmax is the time from dosing to the highest level.

The data set can be described thus: Pharmacokinetic interaction study: single oral dose of Compound (I) alone and coadministered with acarbose. It is filed as in vivo, healthy volunteers. How it is done: This study investigated whether administration of acarbose (A) alters the PK of co-administered Compound (I). Sixteen healthy volunteers (24-59 yo) received a single oral dose of Compound (I) (8 mg) on Day 1, followed by 7 days of repeat dosing with A (100 mg tid with meals). On Day 8, a single oral dose of Compound (I) was coadministered with the morning dose of A. PK profiles following Compound (I) dosing on Days 1 and 8 were compared. […] PK data and point estimates [95% confidence intervals] for Compound (I)+A: Compound (I) alone were analyzed.

The mark [1] stands for this setting: human, in vivo, Compound (I) alone, single oral dose 8 mg, Day 1, healthy volunteers.

For the compound `CN(CCOc1ccc(CC2SC(=O)NC2=O)cc1)c1ccccn1` (centres unmarked) [Compound (I), 5-[4-[2-(N-methyl-N-(2-pyridyl)amino)ethoxy]benzyl]thiazolidine-2,4-dione], under setting [1], the total exposure AUC(0-inf) was 2790 ng·h/mL and the Cmax came to 428 ng/mL. In addition, the half-life (human, in vivo, Compound (I) alone, single oral dose 8 mg, Day 1, healthy volunteers, read-out: T½ (converted)) was 4.93 h. For the same compound, the Tmax (human, in vivo, Compound (I) alone, single oral dose 8 mg, Day 1, median (range)) was 1.48 h.
As to `C[C@H]1O[C@H](O[C@H]2[C@H](O)[C@@H](O)[C@@H](O[C@H]3[C@H](O)[C@@H](O)C(O)O[C@@H]3CO)O[C@@H]2CO)[C@H](O)[C@@H](O)[C@@H]1N[C@H]1C=C(CO)[C@@H](O)[C@H](O)[C@H]1O` (some centres unmarked) [acarbose, reference compound], for the setting “acarbose 100 mg tid coadministered, changes small, not likely clinically relevant”, the “effect on Compound (I) clearance” value was “slightly increase”.
